Results: patent US10092620B2, “Uses of cyclic peptides for treating and preventing atherosclerosis” (THE SCRIPPS RESEARCH INSTITUTE, priority 2013, dated 2018)
Non-standard residues stand in square brackets, D forms with d. 1Nal = N[C@@H](Cc1cccc2ccccc12)C(=O)O; dOrn = NCCC[C@@H](N)C(=O)O

Tested on: HDL in human plasma
Assay: pre-beta HDL ELISA assay: remodeling HDL in human plasma in vitro
Assay type: biochemical
Conditions: for Pre-beta HDL generated (normalized level): pre-beta HDL ELISA
Protocol: First, various cyclic peptides, including the majority of compounds shown in FIG. 2, were assessed for activities for remodeling HDL in human plasma in vitro. Unlike western blot which was used to generate data shown in FIG. 2, here a pre-beta HDL ELISA assay was used to measure pre-beta HDL levels. Results from the assay are shown in Table 1, which lists the peptides in the order of their activities in remodeling HDL.

Row | Substance | activity in generating pre-beta HDL (in words) | Pre-beta HDL generated (normalized level)
1 | c[fWwYqHhQ] (cyclo([dF]W[dW]Y[dQ]H[dH]Q); SMILES NC(=O)CC[C@@H]1NC(=O)[C@@H](Cc2c[nH]cn2)NC(=O)[C@H](Cc2c[nH]cn2)NC(=O)[C@@H](CCC(N)=O)NC(=O)[C@H](Cc2ccc(O)cc2)NC(=O)[C@@H](Cc2c[nH]c3ccccc23)NC(=O)[C@H](Cc2c[nH]c3ccccc23)NC(=O)[C@@H](Cc2ccccc2)NC1=O) [SEQ ID NO:5] | excellent activities in promoting generation of pre-beta HDL | 
2 | 80 (cyclo([dW]L[dW]R[dD]Q[dE]K); SMILES CC(C)C[C@@H]1NC(=O)[C@@H](Cc2c[nH]c3ccccc23)NC(=O)[C@H](CCCCN)NC(=O)[C@@H](CCC(=O)O)NC(=O)[C@H](CCC(N)=O)NC(=O)[C@@H](CC(=O)O)NC(=O)[C@H](CCCNC(=N)N)NC(=O)[C@@H](Cc2c[nH]c3ccccc23)NC1=O) [compound 80] |  | 0.01
3 | 54 (cyclo([dW]L[dW]R[dE]Q[dE]R); SMILES CC(C)C[C@@H]1NC(=O)[C@@H](Cc2c[nH]c3ccccc23)NC(=O)[C@H](CCCNC(=N)N)NC(=O)[C@@H](CCC(=O)O)NC(=O)[C@H](CCC(N)=O)NC(=O)[C@@H](CCC(=O)O)NC(=O)[C@H](CCCNC(=N)N)NC(=O)[C@@H](Cc2c[nH]c3ccccc23)NC1=O) [compound 54] |  | 0.46
4 | 77 (cyclo(W[dF]E[dL]Y[dS]H[dOrn]); ring closure inferred) [compound 77] |  | 0.02
5 | w(Nal)wReQeR (cyclo([dW][1Nal][dW]R[dE]Q[dE]R); ring closure inferred) [SEQ ID NO:28] |  | 0.35
6 | 26 (cyclo([dW]L[dL][dW]K[dD]D[dK]); not fully specified (residues 5, 7)) [compound 26] |  | 0.36
7 | 25 (cyclo([dY]W[dY]K[dS]H[dA]E); SMILES C[C@H]1NC(=O)[C@H](Cc2c[nH]cn2)NC(=O)[C@@H](CO)NC(=O)[C@H](CCCCN)NC(=O)[C@@H](Cc2ccc(O)cc2)NC(=O)[C@H](Cc2c[nH]c3ccccc23)NC(=O)[C@@H](Cc2ccc(O)cc2)NC(=O)[C@H](CCC(=O)O)NC1=O) [compound 25] |  | 0.19
8 | 52 (cyclo([dW]F[dF]Y[dR]H[dH]S); SMILES N=C(N)NCCC[C@H]1NC(=O)[C@H](Cc2ccc(O)cc2)NC(=O)[C@@H](Cc2ccccc2)NC(=O)[C@H](Cc2ccccc2)NC(=O)[C@@H](Cc2c[nH]c3ccccc23)NC(=O)[C@H](CO)NC(=O)[C@@H](Cc2c[nH]cn2)NC(=O)[C@H](Cc2c[nH]cn2)NC1=O) [compound 52] |  | 0.52
9 | 71 (cyclo(WGWGW[dK]S[dOrn]); ring closure inferred) [compound 71] |  | 0.06
10 | 59 (cyclo([dW]Y[dW]Y[dS]R[dS][dS]); SMILES N=C(N)NCCC[C@@H]1NC(=O)[C@@H](CO)NC(=O)[C@H](Cc2ccc(O)cc2)NC(=O)[C@@H](Cc2c[nH]c3ccccc23)NC(=O)[C@H](Cc2ccc(O)cc2)NC(=O)[C@@H](Cc2c[nH]c3ccccc23)NC(=O)[C@@H](CO)NC(=O)[C@@H](CO)NC1=O) [compound 59] |  | 0.24
11 | c[WIWrEqEr] (cyclo(WIW[dR]E[dQ]E[dR]); SMILES CC[C@H](C)[C@@H]1NC(=O)[C@H](Cc2c[nH]c3ccccc23)NC(=O)[C@@H](CCCNC(=N)N)NC(=O)[C@H](CCC(=O)O)NC(=O)[C@@H](CCC(N)=O)NC(=O)[C@H](CCC(=O)O)NC(=O)[C@@H](CCCNC(=N)N)NC(=O)[C@H](Cc2c[nH]c3ccccc23)NC1=O) [SEQ ID NO:50] | excellent activities in generating plasma pre-beta HDL | 
12 | 8 (cyclo([dW]L[dW]K[dD]N[dD]K); SMILES CC(C)C[C@@H]1NC(=O)[C@@H](Cc2c[nH]c3ccccc23)NC(=O)[C@H](CCCCN)NC(=O)[C@@H](CC(=O)O)NC(=O)[C@H](CC(N)=O)NC(=O)[C@@H](CC(=O)O)NC(=O)[C@H](CCCCN)NC(=O)[C@@H](Cc2c[nH]c3ccccc23)NC1=O) [compound 8] |  | 0.26
